{"source": "patent US10646527B2", "about": "“Method of using a Mangifera indica composition in the treatment of obesity” (Vidya Herbs, Inc., priority 2015, dated 2020)", "key": {"[1]": {"test": "Lipid peroxidation inhibitory assay (TBARS, egg yolk homogenate)", "assay_type": "biochemical", "conditions": "Sample Concentration: 100-500 μg/ml", "procedure": "A modified thiobarbituric acid reactive species (TBARS) assay (Ohkowa et al., 1979) is used to measure lipid peroxidation formed using egg yolk homogenate as lipid rich media (Ruberto et al., 2000).\nTake 0.5 ml of egg homogenate (10% in distilled water) and 0.1 ml of test sample in the concentration range 100-500 μg/ml in a test tube and volume made up to 1 ml by adding distilled water. Finally add 0.05 ml ferrous sulphate (0.07M) to the above mixture and incubated for 30 min to induce the lipid peroxidation. Thereafter added 1.5 ml of 20% acetic acid (pH 3.5) and 1.5 ml of (0.8% in 1.1% SDS) TBA and 0.05 ml (20%) TCA then heated in boiling water bath for 60 min. After cooling 5 ml of butanol was added to all the test tubes and centrifuged at 3000 rpm for 10 min. Measured the absorbance of the organic upper layer at 532 nm. The percentage inhibition of lipid peroxidation was calculated from the formula,\n[formula] where: Ab (cont)—is the absorbance of the control Ab (test sample)—is the absorbance of the test sample/standard"}, "[2]": {"test": "Hydrogen peroxide (H2O2) scavenging activity", "assay_type": "biochemical", "procedure": "Hydrogen peroxide scavenging activity of the composition was estimated in this study where initially, composition solutions were prepared at different concentrations in distilled water and the resultant solutions were mixed in 0.6 ml of 40 mM H2O2 solution prepared in phosphate buffer (0.1 M pH 7.4) and incubated for 10 min. The absorbance was measured at 230 nm against a blank solution containing H2O2. Similar procedure was repeated for the composition, mangiferin, and quercetin. The amount of hydrogen peroxide radical inhibited was calculated using the following equation. The result is expressed as % H2O2 radical scavenging activity.\n[formula] [formula] where: Abs control—Absorbance of H2O2 radical Abs sample—Absorbance of sample extract/standard (the composition, mangiferin and quercetin) Result: […]"}, "[3]": {"system": "high fat diet fed male Wistar rats", "test": "Anti-obesity activity in high fat diet fed rats", "assay_type": "in vivo, rat", "conditions": "Group III, Orlistat 30 mg/kg", "procedure": "Objective: The objective was to investigate the effect of the composition against high fat diet fed rats.\nAnimals: male Wistar rats (160 to 200 g); no. of animals: 36; housing: 3/cage, 12 hrs light/dark cycle; temperature: 25±2° c.\nModel & composition of the diet: high fat diet in rats: 25% lard, 5% soybean oil; 5% starch; 65% normal commercial available rat feed\nGroups: male Wistar rats were divided into six groups with six animals in each group."}}, "note": "Marks after values point to notes of the source that are not given here.", "data": [{"smiles": "O=c1c(O)c(-c2ccc(O)c(O)c2)oc2cc(O)cc(O)c12", "note": "[Quercetin(Standard), Quercetin]", "values": [{"measurement": "Lipid peroxidation % inhibition", "setting": "[1]", "result": 53.44, "unit": "%"}, {"measurement": "% H2O2 radical scavenging activity", "setting": "[2]; 10 μg/ml", "result": 5.6, "unit": "%"}, {"measurement": "% H2O2 radical scavenging activity", "setting": "[2]; 20 μg/ml", "result": 14.55, "unit": "%"}, {"measurement": "% H2O2 radical scavenging activity", "setting": "[2]; 30 μg/ml", "result": 18.86, "unit": "%"}, {"measurement": "% H2O2 radical scavenging activity", "setting": "[2]; 40 μg/ml", "result": 33.96, "unit": "%"}]}, {"smiles": "CCCCCCCCCCC[C@@H](C[C@@H]1OC(=O)[C@H]1CCCCCC)OC(=O)[C@H](CC(C)C)NC=O", "note": "[Orlistat]", "values": [{"measurement": "Atherogenic Index", "setting": "[3]", "result": "1.39 ± 0.15^***b"}, {"measurement": "BAT (brown adipose tissue)", "setting": "[3]", "result": "0.28 ± 0.01^nsb"}, {"measurement": "Difference in body weight gain", "setting": "[3]", "result": "79.82 ± 2.58 ^b"}, {"measurement": "Epididymal fat pad Left", "setting": "[3]", "result": "0.52 ± 0.03^nsb"}, {"measurement": "Epididymal fat pad Right", "setting": "[3]", "result": "0.55 ± 0.02^nsb"}, {"measurement": "Liver organ weight", "setting": "[3]", "result": "2.8 ± 0.08***^b"}]}]}
